Where a name gives a salt, the structure may show the parent alone.
Assays:
[1] = physchem
[2] = Fraction unbound in human; type: ADME, organism-based; conditions: in vivo
[3] = Fraction unbound in human treated with propranolol; type: ADME, organism-based; conditions: in vivo
[4] = organism: Homo sapiens; experiment: Unbound renal clearance in human treated with propranolol; type: ADME, organism-based, Kidney; conditions: in vivo
[5] = Systemic clearance in human treated with propranolol; type: ADME, organism-based; conditions: in vivo
[6] = organism: Homo sapiens; experiment: Unbound hepatobiliary clearance in human treated with propranolol; type: ADME, organism-based; conditions: in vivo
[7] = Systemic clearance in human at 120 mg, po; type: ADME, organism-based; conditions: in vivo
[8] = tested on: Homo sapiens; experiment: Unbound hepatobiliary clearance in human at 120 mg, po; type: ADME, organism-based; conditions: in vivo
[9] = Fraction unbound in human at 120 mg, po; type: ADME, organism-based; conditions: in vivo
[10] = clinical; conditions: human, in vivo, iv
[11] = Fraction unbound in healthy human at 10 mg, iv bolus dose and 25, 50 and 100 mg, po; type: ADME, organism-based; conditions: in vivo
[12] = organism: Homo sapiens; conditions: in vivo
[13] = organism: Homo sapiens; conditions: in vivo; remark: listed apart in the source
[14] = organism: Homo sapiens; experiment: Unbound renal clearance in psychiatric patient treated with clozapine; type: ADME, organism-based, Kidney; conditions: in vivo
[15] = organism: Homo sapiens; experiment: Unbound hepatobiliary clearance in psychiatric patient treated with clozapine; type: ADME, organism-based; conditions: in vivo
[16] = Fraction unbound in psychiatric patient treated with clozapine; type: ADME, organism-based; conditions: human, in vivo
[17] = Systemic clearance in psychiatric patient treated with clozapine; type: ADME, organism-based; conditions: human, in vivo
[18] = tested on: Homo sapiens; experiment: Unbound hepatobiliary clearance in human treated with dilitiazem at 120 mg, po; type: ADME, organism-based; conditions: in vivo
[19] = organism: Homo sapiens; experiment: Unbound hepatobiliary clearance in human treated with darifenacin; type: ADME, organism-based; conditions: in vivo
[20] = organism: Homo sapiens; experiment: Unbound renal clearance in human treated with darifenacin; type: ADME, organism-based, Kidney; conditions: in vivo
[21] = clinical; conditions: human, in vivo, po
[22] = Systemic clearance in human at 4 mg, po twice daily for 8 days; type: ADME, organism-based; conditions: in vivo
[23] = tested on: Homo sapiens; experiment: Unbound renal clearance in human at 4 mg, po twice daily for 8 days; type: ADME, organism-based, Kidney; conditions: in vivo, 192 h
[24] = tested on: Homo sapiens; experiment: Unbound hepatobiliary clearance in human at 4 mg, po twice daily for 8 days; type: ADME, organism-based; conditions: in vivo, 192 h
[25] = Systemic clearance in human; type: ADME, organism-based; conditions: in vivo
[26] = Clearance in iv dosed patient with renal impairment; type: ADME, organism-based; conditions: human, in vivo
[27] = tested on: Homo sapiens; experiment: Unbound hepatobiliary clearance in healthy human treated with chlorpromazine at 10 mg, iv bolus dose and 25, 50 and 100 mg, po; type: ADME, organism-based; conditions: in vivo
[28] = tested on: Homo sapiens; experiment: Unbound renal clearance in healthy human treated with chlorpromazine at 10 mg, iv bolus dose and 25, 50 and 100 mg, po; type: ADME, organism-based, Kidney; conditions: in vivo
[29] = Systemic clearance in healthy human treated with chlorpromazine at 10 mg, iv bolus dose and 25, 50 and 100 mg, po; type: ADME, organism-based; conditions: in vivo
[30] = Fraction unbound in healthy human treated with chlorpromazine at 10 mg, iv bolus dose and 25, 50 and 100 mg, po; type: ADME, organism-based; conditions: in vivo

## O=C(C1CCCCC1)N1CC(=O)N2CCc3ccccc3C2C1 (stereo not given) [PRAZIQUANTEL]
[1]
  pKa: 15

## CCOc1cc([C@@H](CS(C)(=O)=O)N2C(=O)c3cccc(NC(C)=O)c3C2=O)ccc1OC
[1]
  pKa: 9.8

## NC(=O)C(c1ccccc1)(c1ccccc1)[C@@H]1CCN(CCc2ccc3c(c2)CCO3)C1 [DARIFENACIN]
[2]
  fraction unbound: 0.02
[1]
  pKa: 13.5

## CN(CCOc1ccc(CC2SC(=O)NC2=O)cc1)c1ccccn1 (stereo not given) [ROSIGLITAZONE]
[1]
  pKa: 10.3

## Cc1c(OCC(F)(F)F)ccnc1C[S+]([O-])c1nc2ccccc2[nH]1 (stereo not given) [LANSOPRAZOLE]
[1]
  pKa: 11.2

## Cc1ccc(-c2cc(C(F)(F)F)nn2-c2ccc(S(N)(=O)=O)cc2)cc1 [CELECOXIB]
[1]
  pKa: 14.2

## CC(C)(C)c1ccc(C(O)CCCN2CCC(C(O)(c3ccccc3)c3ccccc3)CC2)cc1 (stereo not given) [TERFENADINE]
[1]
  pKa: 15

## CC(C)CCC(=O)CC1c2ccccc2C(=O)N1c1ccc2ccc(Cl)nc2n1 (stereo not given) [PAGOCLONE]
[1]
  pKa: 15

## COc1ccc(C(=O)Nc2ccccc2CCC2CCCCN2C)cc1 (stereo not given) [ENCAINIDE]
[1]
  pKa: 8.34

## N#CC[C@H](C1CCCC1)n1cc(-c2ncnc3[nH]ccc23)cn1 [RUXOLITINIB]
[1]
  pKa: 14.9

## Clc1ccc2c(c1)CCc1cccnc1C2=C1CCNCC1 [DESLORATADINE]
[1]
  pKa: 9.27

## CC(C)NCC(O)COc1ccc(O)c2ccccc12 (stereo not given) [4-HYDROXYPROPRANOLOL SULFATE]
[3]
  fraction unbound: 0.26
[4]
  CL free: 5 mL/min/kg
[5]
  clearance: 66 mL/min/kg
[6]
  CL free: 248 mL/min/kg

## Cc1onc(-c2ccccc2)c1-c1ccc(S(N)(=O)=O)cc1 [VALDECOXIB]
[1]
  pKa: 13.1

## O=C(c1ccc(F)cc1)C1CCN(CCn2c(=O)[nH]c3ccccc3c2=O)CC1 [KETANSERIN]
[1]
  pKa: 14.1

## CCOc1cc(CC(=O)N[C@@H](CC(C)C)c2ccccc2N2CCCCC2)ccc1C(=O)O [REPAGLINIDE]
[1]
  pKa: 14.8

## O=C(NCC1CCCCN1)c1cc(OCC(F)(F)F)ccc1OCC(F)(F)F (stereo not given) [FLECAINIDE]
[1]
  pKa: 9.28

## Clc1ccc2c(c1)C(N1CCNCC1)=Nc1ccccc1O2 [AMOXAPINE]
[1]
  pKa: 11.2

## Fc1ccc([C@@H]2CCNC[C@H]2COc2ccc3c(c2)OCO3)cc1 [PAROXETINE]
[1]
  pKa: 10.3

## O[C@H](CNC[C@@H](O)[C@H]1CCc2cc(F)ccc2O1)[C@@H]1CCc2cc(F)ccc2O1 (relative stereo)
[1]
  pKa: 14

## CN1CC(=O)N2[C@H](c3ccc4c(c3)OCO4)c3[nH]c4ccccc4c3C[C@@H]2C1=O
[1]
  pKa: 9.87

## C#Cc1cccc(Nc2ncnc3cc(OCCOC)c(OCCOC)cc23)c1 [ERLOTINIB]
[1]
  pKa: 13.9

## O=C1Nc2ccc(Cl)cc2[C@@](C#CC2CC2)(C(F)(F)F)O1 [EFAVIRENZ]
[1]
  pKa: 7.18

## CNCC[C@H](Oc1cccc2ccccc12)c1cccs1 [DULOXETINE]
[1]
  pKa: 9.97

## COc1ccc([C@@H]2Sc3ccccc3N(CCN(C)C)C(=O)[C@@H]2OC(C)=O)cc1 [DILTIAZEM]
[7]
  CL/F: 12 mL/min/kg
[8]
  CL free: 48 mL/min/kg
[9]
  fraction unbound: 0.25

## COc1ccccc1Oc1c(NS(=O)(=O)c2ccc(C(C)(C)C)cc2)nc(-c2ncccn2)nc1OCCO [BOSENTAN]
[1]
  pKa: 8.36

## COCc1c(C(C)C)nc(C(C)C)c(/C=C/[C@@H](O)C[C@@H](O)CC(=O)O)c1-c1ccc(F)cc1 [CERIVASTATIN]
[1]
  pKa: 14.4

## CCCSc1nc(N[C@@H]2C[C@H]2c2ccc(F)c(F)c2)c2nnn([C@@H]3C[C@H](OCCO)[C@@H](O)[C@H]3O)c2n1 [TICAGRELOR]
[1]
  pKa: 14.3

## CN(C)CCCN1c2ccccc2Sc2ccc(Cl)cc21 [CHLORPROMAZINE]
[10]
  clearance: 18.3 mL/min/kg
[11]
  Fu: 0.0013
[12]
  CL free: 14000 mL/min/kg
[13]
  CL free: 1 mL/min/kg

## C#C[C@]1(O)CC[C@H]2[C@@H]3[C@H](C)CC4=C(CCC(=O)C4)[C@H]3CC[C@@]21C [TIBOLONE]
[1]
  pKa: 15

## Clc1ccc2c(c1)N=C(N1CCNCC1)c1ccccc1N2 [N-DESMETHYLCLOZAPINE]
[14]
  CL free: 5 mL/min/kg
[15]
  CL free: 1.2 mL/min/kg
[16]
  fraction unbound: 0.097
[17]
  clearance: 0.6 mL/min/kg

## COc1ccc2[nH]c([S+]([O-])Cc3ncc(C)c(OC)c3C)nc2c1 (stereo not given) [OMEPRAZOLE]
[1]
  pKa: 13.2

## COc1ccc(CCN2CCC(Nc3nc4ccccc4n3Cc3ccc(F)cc3)CC2)cc1 [ASTEMIZOLE]
[1]
  pKa: 10.1

## CC(NC(C)(C)C)C(=O)c1cccc(Cl)c1 (stereo not given) [BUPROPION]
[1]
  pKa: 15.4

## Cc1c(O)cccc1C(=O)N[C@@H](CSc1ccccc1)[C@H](O)CN1C[C@H]2CCCC[C@H]2C[C@H]1C(=O)NC(C)(C)C
[1]
  pKa: 8.57

## COc1ccnc(C[S+]([O-])c2nc3ccc(OC(F)F)cc3[nH]2)c1OC (stereo not given) [PANTOPRAZOLE]
[1]
  pKa: 7.69

## CNCCN1C(=O)[C@H](OC(C)=O)[C@H](c2ccc(OC)cc2)Sc2ccccc21
[18]
  CL free: 25 mL/min/kg

## CNCCC=C1c2ccccc2CCc2ccccc21 [NORTRIPTYLINE]
[1]
  pKa: 13.9

## CNCC[C@@H](Oc1ccccc1C)c1ccccc1 [ATOMOXETINE]
[1]
  pKa: 10.3

## CCn1cc(C(=O)O)c(=O)c2ccc(C)nc21 [NALIDIXIC ACID]
[1]
  pKa: 13

## COc1cccc(C2(O)CCCCC2CN(C)C)c1 (racemic) [TRAMADOL]
[1]
  pKa: 10

## CCC(C)n1ncn(-c2ccc(N3CCN(c4ccc(OCC5COC(Cn6cncn6)(c6ccc(Cl)cc6Cl)O5)cc4)CC3)cc2)c1=O (stereo not given) [ITRACONAZOLE]
[1]
  pKa: 15

## CC(C)(O)c1ccccc1CC[C@@H](SCC1(CC(=O)O)CC1)c1cccc(/C=C/c2ccc3ccc(Cl)cc3n2)c1 [MONTELUKAST]
[1]
  pKa: 15.9

## CN1C2CCCC1CC(NC(=O)c1nn(C)c3ccccc13)C2 (stereo not given) [GRANISETRON]
[1]
  pKa: 8.9

## COc1ccc2c3c1O[C@H]1[C@@H](O)C=C[C@H]4[C@@H](C2)N(C)CC[C@@]341 [CODEINE]
[1]
  pKa: 9.48

## OCCOCCN1CCN(C2=Nc3ccccc3Sc3ccccc32)CC1 [QUETIAPINE]
[1]
  pKa: 11.2

## COc1ccc(-n2nc(C(N)=O)c3c2C(=O)N(c2ccc(N4CCCCC4=O)cc2)CC3)cc1 [APIXABAN]
[1]
  pKa: 8.56

## CN(Cc1cc(Br)cc(Br)c1N)C1CCCCC1 [BROMHEXINE]
[1]
  pKa: 15.1

## NC(=O)C(c1ccccc1)(c1ccccc1)[C@@H]1CCN(CCc2ccc3c(c2)C(O)CO3)C1 (stereo not given in full)
[19]
  CL free: 60 mL/min/kg
[20]
  CL free: 47 mL/min/kg

## CCc1cc2c(cc1CC)CC(NC[C@H](O)c1ccc(O)c3[nH]c(=O)ccc13)C2 [INDACATEROL]
[1]
  pKa: 14.6

## COc1ccccc1OCC(O)CN1CCN(CC(=O)Nc2c(C)cccc2C)CC1 (stereo not given) [RANOLAZINE]
[1]
  pKa: 9.59

## COc1ccc2c(c1)[C@]13CCCC[C@@H]1[C@H](C2)N(C)CC3 [DEXTROMETHORPHAN]
[1]
  pKa: 10.1

## CC(C)C(=O)Nc1ccc([N+](=O)[O-])c(C(F)(F)F)c1 [FLUTAMIDE]
[21]
  CL/F: > 600 mL/min/kg
[1]
  pKa: 12.9

## CCc1cccc2cc(C(O)CNC(C)(C)C)oc12 (stereo not given) [BUFURALOL]
[1]
  pKa: 14.3

## Cc1ccc(O)c([C@H](CCN(C(C)C)C(C)C)c2ccccc2)c1 [TOLTERODINE]
[22]
  CL/F: 44 mL/min/kg
[1]
  pKa: 14.7
[23]
  CL free: 1 mL/min/kg
[24]
  CL free: 1190 mL/min/kg

## CC(C)NCC(O)COc1cccc2ccccc12 (stereo not given) [PROPRANOLOL]
[2]
  fraction unbound: 0.15
[25]
  clearance: 20 mL/min/kg

## CN1CCN(c2ccccc2/C=C2\SCCN(c3ccc(Cl)c(Cl)c3)C2=O)CC1 [ELZASONAN]
[1]
  pKa: 11.5

## O=C(O[C@@H]1C[C@@H]2C[C@H]3C[C@H](C1)N2CC3=O)c1c[nH]c2ccccc12 [DOLASETRON]
[1]
  pKa: 14.6

## C[C@H](NC(=O)C(C)(C)Oc1ccc(C(F)(F)F)cn1)[C@@H](Cc1ccc(Cl)cc1)c1cccc(C#N)c1 [TARANABANT]
[1]
  pKa: 15.1

## CCc1ccc(CCOc2ccc(CC3SC(=O)NC3=O)cc2)nc1 (stereo not given) [PIOGLITAZONE]
[1]
  pKa: 13.7

## CCc1nn(CCCN2CCN(c3cccc(Cl)c3)CC2)c(=O)n1CCOc1ccccc1 [NEFAZODONE]
[1]
  pKa: 13.8

## Cc1ncc2n1-c1ccc(Cl)cc1C(c1ccccc1F)=NC2 [MIDAZOLAM]
[1]
  pKa: 13.6

## O=C1CC2(CCCC2)CC(=O)N1CCCCN1CCN(c2ncccn2)CC1 [BUSPIRONE]
[26]
  clearance: 28 mL/min/kg
[1]
  pKa: 12.5

## CN(C)CCCN1c2ccc(O)cc2Sc2ccc(Cl)cc21 [7-HYDROXYCHLORPROMAZINE]
[27]
  CL free: 400 mL/min/kg
[28]
  CL free: 6 mL/min/kg
[29]
  clearance: 6.1 mL/min/kg
[30]
  fraction unbound: 0.015
